This note sets out measurements from a melting point compilation (Tetko et al.; mined from patent text by program, amines drawn as free bases though some values may be those of a salt).

By melting point is commonly meant the temperature of the solid-liquid transition.

In turn, `Cc1ccc2c([N+](=O)[O-])c(Cl)ccc2n1` displayed a melting point of 123 to 124 °C.

In turn, `O=c1c2cc(Cl)cc(Br)c2ncn1CCCN1CC=C(c2c[nH]c3ccccc23)CC1` returned a melting point of 192 °C.

Regarding `BrCc1cc2ccccc2s1`, the melting point lay within 107 to 109 °C.

`CS(=O)(=O)c1ccc(Cc2n[nH]c3c2c(=O)n(-c2ccccc2)c2ncccc32)cc1`: the melting point is 312 °C.

As for `CN(C)C=C(C=O)OCCO`, the melting point lay within 148 to 150 °C.

The molecule `CNc1nc(-c2ccccc2)c(-c2nc(N)nc(Nc3cccc([N+](=O)[O-])c3)n2)s1` showed a melting point of 277 °C.

Molecule `CCCCOC(=O)Cc1nc(-c2ccc(F)cc2)oc1-c1ccsc1` returned a melting point of 81 to 82 °C.

As for `Cc1ccc(S(=O)(=O)Nc2c(CCCCCCC(=O)O)ccc3ccccc23)cc1`, the melting point was 128 to 133 °C.

Molecule `NC(=O)c1ccccc1C1c2ccc(Cl)cc2Oc2cc(Cl)ccc21` registered a melting point of 218 to 220 °C.

In turn, `Cc1c(NC(=O)c2ccc(OC[C@@H]3CCCO3)cc2)ccc2cc(CNCCOC(C)C)cnc12` had a melting point of 111 to 113 °C.

Turning to `CN(Cc1ccccc1)C(=O)c1c(-c2ccncc2)c(-c2ccc(F)cc2)nn1C`, the melting point is 149 to 150 °C.

In turn, `O=C(O)CCCCNS(=O)(=O)c1ccc(N2CCCCC2)cc1` yielded a melting point of 115 to 120 °C.

`CC(C(=O)N(C)C)n1ccc(-c2cccs2)n1` (stereo unspecified): the melting point was 95 to 97 °C.

`Nc1nnc(Sc2ccccc2)s1` returned a melting point of 202 to 203 °C.

In turn, `O=C1c2ccccc2C(=O)N1CC(=O)N1c2ccc(F)cc2N(Cc2ccccc2)C(=O)C2CCC[C@H]21` (single isomer, unassigned) registered a melting point of 266 to 268 °C.

`Cc1cc(-c2cn[nH]c2N)cc(C)n1` had a melting point of 222 °C.

With `CCOC(=O)/C=C/c1cccc(C2CCCC2)c1OCCc1ccccc1`, the melting point was in the range of 78 to 80 °C.

`CCOC(=O)C1SCCc2cc(OC)c(OC)cc21` (stereo unspecified) returned a melting point of 96 to 98 °C.

`CC(C)NCC(O)COc1cccc2c1C(=Cc1ccccc1)C(=O)N2` (stereo unspecified) gave a melting point of 163 to 165 °C.

On to `CCc1noc(-c2ncn3c2c(=O)n(CC)c2ncccc23)n1`, for which the melting point amounted to 221 °C.

Consider `O=C(O)COc1ccc(C2=CC(=O)CCC2C2CCCC2)c(Cl)c1Cl` (stereo unspecified), for which the melting point lay in the range of 206 to 207 °C.

In turn, `NS(=O)(=O)Oc1c(Cl)cccc1Cl` showed a melting point of 108 to 110 °C.

Take `CC(C)n1nc(-c2sc(NC(=O)N(C)C)nc2-c2ccccc2)ccc1=O`: the melting point was 199 to 200 °C.

Regarding `CN(CCOc1ccc(C=C2SC(=O)NC2=O)cc1)c1nccs1`, the melting point amounted to 212 °C.

For `CCCCCCCCCCCCCCCCNc1ccc(C(=O)OCC(C)O)cc1` (stereo unspecified), the melting point fell in the range of 91 to 93 °C.

As to `O=c1[nH][nH]c(=O)c2c(O)c3c(C(F)(F)F)cccc3nc12`, the melting point was 180 to 182 °C.

`O=C1Nc2c(F)cccc2C12COc1cc3c(cc12)CCO3` (stereo unspecified) came in with a melting point of over 250 °C.

`C=CC(=O)OC(C#N)Cc1ccc(OC)c(OC)c1` (stereo unspecified): the melting point was 154 to 156 °C.

Take `CC(C)COC(=O)c1ccc2nc(N)n(S(=O)(=O)N(C)C)c2c1`: the melting point was 197 to 198 °C.

`CNc1nc(Br)cc(S(=O)(=O)c2ccccc2)n1`: the melting point was in the range of 142 to 143 °C.

The molecule `COC(=O)c1c(C)c(O)cc(OC)c1Br` registered a melting point of 105 to 110 °C.

Turning to `Cc1c(C)n2nnnc2c2nc(C)n(CCNC(=O)OC(C)(C)C)c12`, the melting point is over 250 °C.

As for `CC(=O)OCCCCn1cnc2c(Cl)nc(Nc3ccccc3)nc21`, the melting point was 195 to 197 °C.

In the case of `c1cnc2ccc(Cn3nnc4ccc(-c5ccc6c(c5)CCO6)nc43)cc2c1`, the melting point lay in the range of 131 to 133 °C.

The molecule `CCN1C(=O)C(C(=O)Nc2ccc(F)cc2)c2cc3c(cc21)CC(C)O3` (stereo unspecified) displayed a melting point of 196 to 197 °C.

`COc1ccc2c(c1)OC(=O)C(C)(C#Cc1ccccc1)C2` (stereo unspecified) yielded a melting point of 136 to 138 °C.

In the case of `OCCCc1ccc(-c2ccc(CCCO)c(C(F)(F)F)c2)cc1C(F)(F)F`, the melting point lay within 87.5 to 90 °C.

`O=C(Nc1c(Cl)cncc1Cl)c1ccc(OC(F)F)c2oc3ccc(C(F)(F)F)cc3c12` showed a melting point of 228 °C.

Turning to `CC1(C)CC(=O)C2=C(C1)NC1=C(C(=O)CC(C)(C)C1)C2c1ccc(C(F)(F)F)c(F)c1`, the melting point is 296 to 300 °C.

In the case of `O=C(O)c1ncncc1Br`, the melting point stood at 200 °C.

Regarding `CCC(Oc1ccc2oc3cc(Cl)ccc3c2c1)C(=O)O` (stereo unspecified), the melting point was 143 to 145 °C.

With `CCCc1nc2ccc(Cl)nc2c(=O)[nH]1`, the melting point lay within 264 to 266 °C.

In the case of `CCCCc1nc2ccccn2c(=O)c1-c1ccc(N[C@@H]2CCN(C(=O)OC(C)(C)C)C2)cc1C`, the melting point lay within 162 to 168 °C.

For the molecule `O=C(O)c1ccc2c(c1)S(=O)(=O)c1ccc([N+](=O)[O-])cc1C=C2`, the melting point lay in the range of 310 to 312 °C.

Regarding `CC(=O)N1CCC(Oc2ccc(C(F)(F)F)cc2)(c2ccccc2)CC1`, the melting point was 96 to 100 °C.

Consider `CCOCc1nc2c(N)nc3ccccc3c2n1CC1(C(N)=O)CCCCC1`, for which the melting point fell in the range of 221 to 223 °C.

`Cc1cccc(CON2C(C)(C)CC(O)CC2(C)C)c1` had a melting point of 66 to 67 °C.

Molecule `O=C1CCC(c2ccccc2)(c2ccccc2)C(C[N+](=O)[O-])C1` (racemic) had a melting point of 164 °C.

As for `Cc1cc([N+](=O)[O-])ccc1N1CCN(C(=O)OC(C)(C)C)CC1`, the melting point was 122 to 123 °C.

`Cc1cc(C)c2ncc([N+](=O)[O-])c(-c3ccccc3Cl)c2c1`: the melting point was in the range of 130 to 131 °C.

As for `CCOC(=S)c1ccc2sc(CCl)c(C)c2c1`, the melting point was 95 to 96 °C.

As to `CCOC(=O)C(C)(C)Oc1ccc(-c2ccc(CNC(=O)c3cc(Cl)ccc3OC)cc2)cc1`, the melting point was under 20 °C.

Regarding `CCOc1cc(C(Cl)(Cl)Cl)cc(OC)n1`, the melting point fell in the range of 36 to 38 °C.

`NC(=O)Cn1nccc1-c1ccc(Oc2ccc(F)cc2)cc1` yielded a melting point of 168 to 169 °C.

The molecule `CCOC(=O)c1c(C)nc2c(c1NCCCN1CCOCC1)NC(=O)CN2` returned a melting point of 168 to 170 °C.

Molecule `O=C(C1CCN(S(=O)(=O)c2ccc(Br)cc2)CC1)N1CCN(c2ccncn2)CC1` came in with a melting point of 171 to 174 °C.

The molecule `CS(=O)(=O)c1ccnc(-c2nc(=O)c3ccccc3s2)c1` returned a melting point of 300 to 301 °C.

The molecule `O=C(c1ccccc1)c1cc(Cl)cc2c1OCC2C(=O)O` (stereo unspecified) had a melting point of 155 to 157 °C.

Take `Cn1cc(-c2ccc(Br)cc2)c(=O)c(-c2cccc(C(F)(F)F)c2)c1`: the melting point is 144 to 146 °C.

`O=C(CCc1ccccc1)c1ccc(OCCO)cc1` came in with a melting point of 41 to 43 °C.

Consider `Cc1c(C)c(NC(=O)CC(C)(C)C)c2c(c1C)C(=O)C(C)(C)O2`, for which the melting point lay within 158 to 159 °C.

In turn, `CC(C)(C)C(=O)C(CC(=O)c1ccc(Cl)cc1)n1cncn1` (stereo unspecified) gave a melting point of 116 to 119 °C.

Regarding `NC(=NCCN(Cc1ccc(F)cc1)c1ccccn1)NCCCc1c[nH]cn1`, the melting point lay within 60 to 63 °C.

With `Cc1oc2c(NC(=O)c3c(Cl)cccc3Cl)cc(C(N)=O)cc2c1C`, the melting point was over 250 °C.

In turn, `CCOC(=O)c1cc2c(C)c(-c3cccc(Cl)c3)c(=O)oc2nc1C(=O)OCC` gave a melting point of 170 to 172 °C.

Turning to `COc1ccc(C(=O)Nc2cccnc2)cc1NC(=S)Nc1cccc(C(=O)O)c1`, the melting point lay in the range of 191 to 192 °C.

The molecule `COc1ccc(-c2nc(-c3ccc(F)cc3)c(-c3ccc(S(C)(=O)=O)cc3)s2)cc1` yielded a melting point of 187 to 189 °C.

Consider `O=C(O)c1c2c(nc3ccc(F)cc13)-c1ccc(C3CCCCC3)cc1CC2`, for which the melting point is 118 to 121 °C.

In turn, `COc1nc(C)cc(-n2cncn2)n1` displayed a melting point of 98 to 98.5 °C.

The molecule `CCOc1c(Nc2cc(C(F)(F)F)ccc2OC)c(=O)c1=O` registered a melting point of 143 to 155 °C.

Consider `COc1ccc(-c2oc3cc(C)c(C)cc3c2-c2ccc(OC)cc2)cc1`, for which the melting point was found to be 153 °C.

`C=C(C)C(CC=C(C)C)CC12CC(CC=C(C)C)C(C)(C)C(CC=C(C)C)(C(=O)C(C(=O)c3ccc(O)c(O)c3)=C1O)C2=O` (stereo unspecified) registered a melting point of 126 °C.

The molecule `COC(=O)c1ncccc1N` showed a melting point of 139 to 146 °C.

For the molecule `CCOC(=O)C1=C(C)NC(=S)N(C(=O)OCC)C1c1cccc(OC)c1` (stereo unspecified), the melting point was 107 to 109 °C.

`CCn1ccc(-c2cccc(-c3ccnc4c(C(=O)c5cccs5)cnn34)c2)n1`: the melting point amounted to 61 °C.

On to `COC1C=C(C)C(=O)CC(C)(C)C1OC(=O)c1ccc(N)cc1` (stereo unspecified), for which the melting point was 138 to 161 °C.

In turn, `Cc1cc(C(=O)N(C)CCO)ncc1C(c1cc(F)ccc1F)S(=O)(=O)c1ccc(F)cc1` (stereo unspecified) showed a melting point of 123 to 125 °C.

As for `NCC(C(=O)O)C1CCCCC1` (stereo unspecified), the melting point was 238 to 240 °C.

Consider `Cc1cc(Cl)ccc1N=CN(C)SSN(C)C=Nc1ccc(Cl)cc1C`, for which the melting point lay within 56 to 57 °C.

Regarding `Cc1c(O)cc(OC(=O)Cc2ccc(CC(=O)Oc3cc(O)c(C)c(O)c3)cc2)cc1O`, the melting point was 276 to 278 °C.

`O=C1CCCN(C(=O)c2ccc([N+](=O)[O-])cc2Cl)c2ncccc21` had a melting point of 162 to 164 °C.

Consider `CC1(C)OC(=O)C(C(c2ccccc2)c2c[nH]c3ccccc23)C(=O)O1` (stereo unspecified), for which the melting point fell in the range of 147 to 150 °C.

Consider `ON=C(c1ccc(O)c(Cl)c1Cl)c1cccc2ccccc12`, for which the melting point was in the range of 145 to 160 °C.

Regarding `IC#CCn1c2ccccc2c2ccccc21`, the melting point fell in the range of 151 to 152 °C.

The molecule `O=C1Cc2ccccc2N1c1c(Cl)cc(OCc2ccc3ccccc3n2)cc1Cl` yielded a melting point of 158 °C.

`O=C(O)c1ccccc1-c1ccc(CO)cc1` gave a melting point of 140 to 142 °C.

For the molecule `CC(=O)Cc1ccc(-c2noc3cc(Cl)ccc23)cc1`, the melting point fell in the range of 109 to 110 °C.

As to `Nc1sc2c(c1C(=O)c1ccco1)CCC2`, the melting point was in the range of 149 to 153 °C.

On to `Sc1ccc2c(c1)Sc1ccc(Cl)cc1N2`, for which the melting point is 230 to 232 °C.

The molecule `Cc1cc(Cl)nc2ccc(Cn3ccnc3)cc12` displayed a melting point of 121 °C.

`O=C(Nc1cc(Cl)ccn1)c1ccccn1` returned a melting point of 118 to 120 °C.
